For data set [1], the system named is OV2423 patient derived ovarian cancer. The data set can be described thus: Tumor growth response in OV2423 patient derived ovarian cancer xenograft mouse model. Conditions: 4.54/0.150 mg/kg (antibody/payload) intravenously on day 1; Day 22; female BALB/c nude mice. The method, then: Female BALB/c nude mice were implanted subcutaneously with OV2423 patient derived ovarian cancer tumor fragments (˜2-3 mm^3 per mouse). Animals were randomized into treatment groups when tumor volumes were between 101-230 mm^3 (mean=155mm^3/group) (n=8/group). Vehicle, palivizumab isotype control conjugate (prepared as described in US Patent Application No. 2022/0233707A1, 4.54/0.150 mg/kg) and XMT-1660 (4.61/0.150 mg/kg, DAR 6) were dosed intravenously on day 1 (all doses are given by antibody/payload).
Background: In xenograft studies the graft and the host belong to different species.

For data set [2], the system named is mBR9013 syngeneic breast cancer. The data set can be described thus: Tumor growth response in mBR9013 syngeneic breast cancer mouse model. Conditions: for TGI (tumor volume compared to vehicle control): day 15, female FVB/NJ mice. Here is the method: Female FVB/NJ mice were implanted subcutaneously with mBR9013 tumor fragments (2-3 mm^3). Animals were randomized into treatment groups when tumor volumes were between 96-277 mm^3 (mean=148 mm^3/group) (n=8/group). […] Vehicle, isotype control conjugate and XMT-1660 were dosed intravenously.

Consider palivizumab isotype control conjugate, for which the “TGI (tumor volume compared to vehicle control)” value in data set [1] is reported as 24.8%; in data set [2] (1.51/0.050 mg/kg (antibody/payload) intravenously on day 1), −7.91%; in data set [2] (4.54/0.150 mg/kg (antibody/payload) intravenously on day 1), 32.02%. The “body weight loss or clinical observations” value in data set [2] (mouse, in vivo) is “No significant body weight loss or clinical observations”.
